Results taken from patent publication US8394950B2, “Analogues of coformycin and their use for treating protozoan parasite infections” (Industrial Research Limited, priority 2006, dated 2013).
Read-outs that look alike come from different tables or passages of the source.

Assays:
PfADA = biological target: T1, PfADA (Plasmodium falciparum, UniProt Q8IJA9); assay: biochemical; assay type: biochemical
T1 sequence (Q8IJA9 1-367): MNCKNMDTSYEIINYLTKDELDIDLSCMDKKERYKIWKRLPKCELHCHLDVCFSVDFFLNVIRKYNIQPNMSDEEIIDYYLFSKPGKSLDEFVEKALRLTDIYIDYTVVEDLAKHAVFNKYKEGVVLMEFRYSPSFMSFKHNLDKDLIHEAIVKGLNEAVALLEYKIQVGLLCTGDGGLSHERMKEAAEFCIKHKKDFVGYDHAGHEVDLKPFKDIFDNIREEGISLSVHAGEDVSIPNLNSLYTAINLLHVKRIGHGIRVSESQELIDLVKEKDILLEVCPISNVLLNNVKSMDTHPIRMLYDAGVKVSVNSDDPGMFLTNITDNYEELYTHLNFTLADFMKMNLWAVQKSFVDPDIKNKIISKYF
Experimental: (§1) Inhibition studies measured both initial and slow-onset rates to establish both the initial dissociation constant (Ki) and the steady-state dissociation constant (Ki*) as previously described [Kicska, G. A., Tyler, P. C., Evans, G. B., Furneaux, R. H., Kim, K., and Schramm, V. L. (2002) J Biol Chem 277, 3219-3225.]. Kd is the lower of these values.
(§2) Concentrations of inhibitors were determined spectrophotometrically using the extinction coefficient of 8250 M^−1cm^−1 at 282 nm.
(§3) (V. L. Schramm, D. C. Baker, Biochemistry, 1985, 24, 641-646). Inhibitor concentrations ranging from 10 μM to 2 nM were used for determination of the inhibition constants and an enzyme concentration of 1 nM. The Ki values were determined by fitting the initial rate and inhibitor concentrations to the following expression of competitive inhibition: (V′o/Vo)=(KM+[S])/(KM+[S]+(KM[I]/Ki)) where V′o is the initial rate in the presence of inhibitor, and Vo is the initial rate in the absence of inhibitor, [I] is the inhibitor concentration, and [S] is the substrate concentration.

HsADA = biological target: T2, HsADA (Homo sapiens, UniProt P00813); assay: Inhibition of human adenosine deaminase (adenosine to inosine, absorbance change); assay type: biochemical
T2 construct: Human adenosine deaminase from human erythrocytes; purchased Sigma-Aldrich Chemical Company; host or cells: human erythrocytes
T2 sequence (P00813 1-363): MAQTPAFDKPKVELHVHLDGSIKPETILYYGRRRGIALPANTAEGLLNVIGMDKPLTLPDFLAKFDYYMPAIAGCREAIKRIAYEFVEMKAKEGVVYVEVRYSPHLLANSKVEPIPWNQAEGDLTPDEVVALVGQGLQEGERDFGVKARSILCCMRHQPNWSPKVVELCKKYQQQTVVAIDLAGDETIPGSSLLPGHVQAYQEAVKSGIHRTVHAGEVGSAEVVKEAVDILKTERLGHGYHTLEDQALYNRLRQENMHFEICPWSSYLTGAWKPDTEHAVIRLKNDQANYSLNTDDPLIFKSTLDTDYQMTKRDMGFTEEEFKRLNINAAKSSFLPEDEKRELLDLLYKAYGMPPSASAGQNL
Experimental: as §1, §2, §3

BtADA = biological target: T3, BtADA (Bos taurus, UniProt P56658); assay: Inhibition of bovine adenosine deaminase (adenosine to inosine, absorbance change); assay type: biochemical
T3 construct: bovine adenosine deaminase from bovine spleen; purchased Sigma-Aldrich Chemical Company; host or cells: bovine spleen
T3 sequence (P56658 1-363): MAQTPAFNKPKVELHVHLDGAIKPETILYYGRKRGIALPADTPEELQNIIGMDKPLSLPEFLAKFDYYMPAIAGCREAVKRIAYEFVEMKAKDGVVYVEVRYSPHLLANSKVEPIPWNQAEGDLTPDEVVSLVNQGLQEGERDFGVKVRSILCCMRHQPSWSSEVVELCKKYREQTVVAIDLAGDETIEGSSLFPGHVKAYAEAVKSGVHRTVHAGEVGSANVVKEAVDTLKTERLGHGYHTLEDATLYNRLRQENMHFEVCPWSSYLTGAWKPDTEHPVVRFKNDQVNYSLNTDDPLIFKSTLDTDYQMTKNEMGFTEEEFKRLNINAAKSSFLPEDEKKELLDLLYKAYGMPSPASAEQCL
Experimental: as §1, §2, §3

P. falciparum [1] = conditions: cited from earlier work; for killing of P. falciparum in culture (in words): in culture / growing in human erythrocytes
P. falciparum strain 3D7 = assay: P. falciparum culture kill curves, uptake of tritiated ethanolamine in red blood cells; assay type: cell-based; conditions: for IC50: read-out: IC50, prevention of growth of P. falciparum (uptake of tritiated ethanolamine)
Experimental: Human erythrocytes were collected from local volunteers under protocol CCI 00-31 or CCI 99-240 of the Albert Einstein College of Medicine. Cultures of P. falciparum strain 3D7 were grown in RPMI supplemented with 0.5% Albumax II (Invitrogen) and were sorbitol-synchronized twice before initiation of the 72 hour assay in 96-well plates with a total volume of 200 μL at 1% hematocrit and 0.8% parasitemia (100% rings). […] Drugs were dissolved in water and diluted with media prior to addition to cultures. […] After 54 h, cell cultures were frozen and thawed to disrupt cells, and the mixtures were harvested on glass fiber filters. Filters were counted in a Winspectral 1414 scintillation counter. Experiments were done twice with six replicate wells for each experiment. Individual data points more than two standard deviations from the mean were discarded. For some experiments, parasitemias were counted on Giemsa-stained smears of cultures treated in parallel.

P. falciparum [2] = assay: Visual inspection of parasitemia in infected red blood cells after 48 hours; assay type: cell-based; conditions: for parasitemia after 48 hours: 1% parasitemia initially
[3] = in vivo; cited from earlier work
Plasmodium knowlesi = conditions: single dose, primates with Plasmodium knowlesi; cited from earlier work
[4] = initial dissociation constant, 100 μM adenosine, pH 7.0, 30° C., read-out: PfADA Ki
[5] = no detectible slow onset, read-out: dissociation constants (PfADA)
[6] = methylthioadenosine (100 μM) plus compound (10 μM)
[7] = methylthioadenosine (100 μM) alone

Question: Which results are given for `CCCSC[C@H]1O[C@@H](n2cnc3c2N=CNC[C@H]3O)C[C@@H]1O` [5′-PrS-2′-deoxycoformycin (17), (8R)-3-(2′-deoxy-5′-propylthio-β,D-erythro-pentofuranosyl)-8-hydroxy-3,6,7,8-tetrahydroimidazo[4,5-d][1,3]diazepine]?
Answer: inhibition of PfADA (in words) (PfADA): no detectible slow onset; Ki (PfADA; [4]): 12 ± 1 nM; Ki (PfADA; [5]): 12 nM; Ki (HsADA; read-out: HsADA Ki): > 10000 nM; Ki (BtADA; read-out: BtADA Ki): > 10000 nM

Question: With `O=c1[nH]cnc2c([C@@H]3N[C@H](CO)[C@@H](O)[C@H]3O)c[nH]c12` [Immucillin-H] as the molecule, how does the “time to purine-less death” value (P. falciparum [1]; P. falciparum-infected erythrocytes, simultaneous inhibition of host and parasite PNP) read?
Answer: ≤ 24 h

Question: Which “inhibition of PfADA (in words)” value (PfADA) does the source give for `O[C@@H]1CNC=Nc2c1ncn2[C@H]1C[C@H](O)[C@@H](CSc2ccccc2)O1` [5′-PhS-2′-deoxycoformycin (18), (8R)-3-(2′-deoxy-5′-phenylthio-β,D-erythro-pentofuranosyl)-8-hydroxy-3,6,7,8-tetrahydroimidazo[4,5-d][1,3]diazepine] here?
Answer: no detectible slow onset

Question: And the Ki (PfADA; [4])?
Answer: 61 ± 11 nM

Question: And the Ki (PfADA; [5])?
Answer: 61 nM

Question: And the Ki (BtADA; read-out: BtADA Ki)?
Answer: > 10000 nM

Question: What does the source list for `CSC[C@H]1O[C@@H](n2cnc3c2N=CNC[C@H]3O)C[C@@H]1O` [5′-MeS-2′-deoxycoformycin (16), (8R)-3-(2′-deoxy-5′-methylthio-β,D-erythro-pentofuranosyl)-8-hydroxy-3,6,7,8-tetrahydroimidazo[4,5-d][1,3]diazepine]?
Answer: Ki (PfADA; [4]): 2.3 ± 0.8 nM; Ki (PfADA; slow onset equilibrium dissociation constant, read-out: PfADA Ki^a): 0.73 ± 0.22 nM; Ki (HsADA; read-out: HsADA Ki): > 10000 nM; Ki (BtADA; read-out: BtADA Ki): > 10000 nM

Question: Which results are given for “(8R)-8-hydroxy-3-(5-methylthio-β-D-ribofuranosyl)-3,6,7,8-tetrahydroimidazo[4,5-d][1,3]diazepine [5′-MeS-Coformycin (8)]”?
Answer: killing of P. falciparum growing in human erythrocytes (in words) (P. falciparum strain 3D7): kills P. falciparum growing in human erythrocytes; IC50 (P. falciparum strain 3D7; strain 3D7 in red blood cells, 72 hour assay, no hypoxanthine supplementation): 62 nM; parasitemia after 48 hours (P. falciparum [2]; [6]): 1%; parasites in the trophozoite form after 48 hours (P. falciparum [2]; [6]): 100%

Question: Which “parasitemia after 48 hours” value (P. falciparum [2]; [7]) does the source give for 5′-methylthioadenosine here?
Answer: 8%

Question: And the “parasites in the ring form after 48 hours” value (P. falciparum [2]; [7])?
Answer: 97%

Question: Which results are given for `OC[C@H]1O[C@@H](n2cnc3c2N=CNC[C@H]3O)[C@H](O)[C@@H]1O` [Coformycin]?
Answer: IC50 (P. falciparum strain 3D7; Plasmodium falciparum, 3D7, Erythrocyte, 72 h): 3.5 nM; potency relative to 5′-methylthiocoformycin (times more potent) (PfADA; PfADA): about 5 times; Ki (PfADA; PfADA Ki (nM), initial dissociation constant, 100 μM adenosine, pH 7.0, 30° C.): 0.68 ± 0.07 nM; Ki (PfADA; PfADA Ki^a (nM), slow onset equilibrium dissociation constant): 0.08 ± 0.02 nM; Ki (PfADA; tightest dissociation constants, slow onset inhibition, range over all three enzymes (BtADA, HsADA, PfADA)): 0.027 to 0.11 nM; Ki (HsADA; HsADA Ki (nM), initial dissociation constant, 100 μM adenosine, pH 7.0, 30° C., >10,000 = no inhibition at 10 μM): 13.9 ± 3.4 nM; Ki (HsADA; HsADA Ki^a (nM), slow onset equilibrium dissociation constant): 0.11 ± 0.02 nM; inhibition of human ADA (in words) (HsADA; mammalian ADAs): inhibiting mammalian ADAs with equivalent potency; Ki (BtADA; BtADA Ki (nM), initial dissociation constant, 100 μM adenosine, pH 7.0, 30° C., >10,000 = no inhibition at 10 μM): 1.1 ± 0.4 nM; Ki (BtADA; BtADA Ki^a (nM), slow onset equilibrium dissociation constant): 0.06 ± 0.01 nM; inhibition of bovine ADA (in words) (BtADA; mammalian ADAs): inhibiting mammalian ADAs with equivalent potency; parasitemia after 48 hours (P. falciparum [2]; [6]): 1%; parasites in the trophozoite form after 48 hours (P. falciparum [2]; [6]): 100%

Question: Which results are given for `OC[C@H]1O[C@@H](n2cnc3c2NC=NC[C@H]3O)C[C@@H]1O` [2′-deoxycoformycin]?
Answer: toxicity in mammals (in words) [3]: highly toxic; effect on parasitemia (in words) (Plasmodium knowlesi): dramatically reduced parasitemia

Question: With `CSC[C@H]1N[C@@H](c2c[nH]c3c(=O)[nH]cnc23)[C@H](O)[C@@H]1O` [5′-Methylthio-Immucillin-H] as the molecule, how does the “killing of P. falciparum in culture (in words)” value (P. falciparum [1]) read?
Answer: able to kill P. falciparum growing in human erythrocytes

Question: And the “killing of P. falciparum in culture (in words)” value (P. falciparum [1]; listed as 5′-methylthio-Immucillin-H)?
Answer: kill P. falciparum in culture
